Source: the supplement of paper PMC13380429

How the values were obtained:
Conditions in all cases: 72 h
HepG2 [1] = assay: cell viability relative to DMSO; higher = less toxic
Vero E6 [2] = assay: as above
Calu-3 [3] = assay: as above
Caco-2 [4] = assay: as above
U2OS [5] = assay: as above
Calu-3 [6] = assay: relative viability EC50 (midpoint between 100% and the lowest measured viability); higher = less toxic
Caco-2 [7] = assay: as above
HepG2 [8] = assay: drug sensitivity score (DSS) for viability; higher = more toxic; extreme values may be limits of the assay
Vero E6 [9] = assay: as above
Calu-3 [10] = assay: as above
Caco-2 [11] = assay: as above
U2OS [12] = assay: as above
HepG2 [13] = assay: relative viability EC50 (midpoint between 100% and the lowest measured viability); higher = less toxic
Vero E6 [14] = assay: as above
U2OS [15] = assay: as above

Compound `CN1CCN(c2cccc(Nc3nc4c(-c5ccc(S(C)(=O)=O)cc5)cccn4n3)c2)CC1` has a cell viability (HepG2 [1]; 1 nM) of 100%, a cell viability (HepG2 [1]; 10 nM) of 95.9% and a cell viability (HepG2 [1]; 100 nM) of 94.1%. The cell viability (HepG2 [1]; 1000 nM) was 84.8%, the cell viability (HepG2 [1]; 10000 nM) was 58.9% and the cell viability (Vero E6 [2]; 1 nM) was 96.4%. For the same compound, the cell viability (Vero E6 [2]; 10 nM) was 95.1%, the cell viability (Vero E6 [2]; 100 nM) was 94.8% and the cell viability (Vero E6 [2]; 1000 nM) was 96.3%. The cell viability (Vero E6 [2]; 10000 nM) was 73.6%, the cell viability (Calu-3 [3]; 1 nM) was 97.9% and the cell viability (Calu-3 [3]; 10 nM) was 99.4%. It also gave a cell viability (Calu-3 [3]; 100 nM) of 91.8%, a cell viability (Calu-3 [3]; 1000 nM) of 125% and a cell viability (Calu-3 [3]; 10000 nM) of 136%. The cell viability (Caco-2 [4]; 1 nM) was 78.9%, the cell viability (Caco-2 [4]; 10 nM) was 95.2% and the cell viability (Caco-2 [4]; 100 nM) was 95.1%. The cell viability (Caco-2 [4]; 1000 nM) was 93.1%, the cell viability (Caco-2 [4]; 10000 nM) was 91% and the cell viability (U2OS [5]; 1 nM) was 96.1%. The cell viability (U2OS [5]; 10 nM) was 102%, the cell viability (U2OS [5]; 100 nM) was 94.8% and the cell viability (U2OS [5]; 1000 nM) was 95.8%. The cell viability (U2OS [5]; 10000 nM) was 68.9%, the “relative viability EC50” value (Calu-3 [6]) was > 10 µM and the “relative viability EC50” value (Caco-2 [7]) was > 10 µM. For the same compound, the drug sensitivity score (HepG2 [8]) was 3.6, the drug sensitivity score (Vero E6 [9]) was 1.6 and the drug sensitivity score (Calu-3 [10]) was 0. The drug sensitivity score (Caco-2 [11]) was 0 and the drug sensitivity score (U2OS [12]) was 2.1.

In the case of `Cc1cc(Nc2cc(N3CCN(C)CC3)nc(Sc3ccc(NC(=O)C4CC4)cc3)n2)n[nH]1` [tozasertib], the cell viability (HepG2 [1]; 1 nM) is reported as 103%, the cell viability (HepG2 [1]; 10 nM) is reported as 99.2% and the cell viability (HepG2 [1]; 100 nM) is reported as 70.4%. For the same compound, the cell viability (HepG2 [1]; 1000 nM) was 72.4%, the cell viability (HepG2 [1]; 10000 nM) was 36.4% and the cell viability (Vero E6 [2]; 1 nM) was 107%. For the same compound, the cell viability (Vero E6 [2]; 10 nM) was 107%, the cell viability (Vero E6 [2]; 100 nM) was 100% and the cell viability (Vero E6 [2]; 1000 nM) was 84.2%. For the same compound, the cell viability (Vero E6 [2]; 10000 nM) was 85%, the cell viability (Calu-3 [3]; 1 nM) was 110% and the cell viability (Calu-3 [3]; 10 nM) was 97.6%. It also gave a cell viability (Calu-3 [3]; 100 nM) of 96.8%, a cell viability (Calu-3 [3]; 1000 nM) of 89.1% and a cell viability (Calu-3 [3]; 10000 nM) of 70.9%. For the same compound, the cell viability (Caco-2 [4]; 1 nM) was 97.1%, the cell viability (Caco-2 [4]; 10 nM) was 91.1% and the cell viability (Caco-2 [4]; 100 nM) was 96.2%. It also gave a cell viability (Caco-2 [4]; 1000 nM) of 97.7%, a cell viability (Caco-2 [4]; 10000 nM) of 77.9% and a cell viability (U2OS [5]; 1 nM) of 105%. It also gave a cell viability (U2OS [5]; 10 nM) of 101%, a cell viability (U2OS [5]; 100 nM) of 101% and a cell viability (U2OS [5]; 1000 nM) of 86.2%. The cell viability (U2OS [5]; 10000 nM) was 54.9%, the “relative viability EC50” value (HepG2 [13]) was 0.448 µM and the “relative viability EC50” value (Vero E6 [14]) was > 10 µM. The “relative viability EC50” value (Caco-2 [7]) was > 10 µM, the drug sensitivity score (HepG2 [8]) was 9.1 and the drug sensitivity score (Vero E6 [9]) was 1.6. For the same compound, the drug sensitivity score (Calu-3 [10]) was 2.2, the drug sensitivity score (Caco-2 [11]) was 1.1 and the drug sensitivity score (U2OS [12]) was 4.4.

Work on `OC[C@H]1O[C@@H](n2cnc3c(NC4CCCC4)nc(Cl)nc32)[C@H](O)[C@@H]1O` [2-chloro-N6-cyclopentyladenosine] yielded a cell viability (Vero E6 [2]; 1 nM) of 102%, a cell viability (Vero E6 [2]; 10 nM) of 106% and a cell viability (Vero E6 [2]; 100 nM) of 98.5%. It also gave a cell viability (Vero E6 [2]; 1000 nM) of 99.5%, a cell viability (Vero E6 [2]; 10000 nM) of 104% and a cell viability (Calu-3 [3]; 1 nM) of 105%. The cell viability (Calu-3 [3]; 10 nM) was 91.8%, the cell viability (Calu-3 [3]; 100 nM) was 104% and the cell viability (Calu-3 [3]; 1000 nM) was 92.6%. The cell viability (Calu-3 [3]; 10000 nM) was 106%, the “relative viability EC50” value (Vero E6 [14]) was > 10 µM and the “relative viability EC50” value (Calu-3 [6]) was > 10 µM. The drug sensitivity score (Vero E6 [9]) was 0 and the drug sensitivity score (Calu-3 [10]) was 0.

For `C[C@H]1[C@H](OC(=O)CCC(=O)O)O[C@@H]2O[C@@]3(C)CC[C@H]4[C@H](C)CC[C@@H]1[C@@]24OO3` [artesunate], the cell viability (HepG2 [1]; 1 nM) was 91.9%, the cell viability (HepG2 [1]; 10 nM) was 96.5% and the cell viability (HepG2 [1]; 100 nM) was 94.5%. It also gave a cell viability (HepG2 [1]; 1000 nM) of 88.3%, a cell viability (HepG2 [1]; 10000 nM) of 65.2% and a cell viability (Vero E6 [2]; 1 nM) of 97.4%. For the same compound, the cell viability (Vero E6 [2]; 10 nM) was 97.8%, the cell viability (Vero E6 [2]; 100 nM) was 96.5% and the cell viability (Vero E6 [2]; 1000 nM) was 98.5%. It also gave a cell viability (Vero E6 [2]; 10000 nM) of 69.2%, a cell viability (Calu-3 [3]; 1 nM) of 104% and a cell viability (Calu-3 [3]; 10 nM) of 98.3%. For the same compound, the cell viability (Calu-3 [3]; 100 nM) was 114%, the cell viability (Calu-3 [3]; 1000 nM) was 107% and the cell viability (Calu-3 [3]; 10000 nM) was 88%. For the same compound, the cell viability (Caco-2 [4]; 1 nM) was 102%, the cell viability (Caco-2 [4]; 10 nM) was 96.1% and the cell viability (Caco-2 [4]; 100 nM) was 98.3%. The cell viability (Caco-2 [4]; 1000 nM) was 98.3%, the cell viability (Caco-2 [4]; 10000 nM) was 73% and the cell viability (U2OS [5]; 1 nM) was 102%. It also gave a cell viability (U2OS [5]; 10 nM) of 100%, a cell viability (U2OS [5]; 100 nM) of 100% and a cell viability (U2OS [5]; 1000 nM) of 81%. The cell viability (U2OS [5]; 10000 nM) was 35.3%, the “relative viability EC50” value (Calu-3 [6]) was > 10 µM and the “relative viability EC50” value (U2OS [15]) was 1.42 µM. The drug sensitivity score (HepG2 [8]) was 2.8, the drug sensitivity score (Vero E6 [9]) was 1.6 and the drug sensitivity score (Calu-3 [10]) was 0. It also gave a drug sensitivity score (Caco-2 [11]) of 1.3 and a drug sensitivity score (U2OS [12]) of 6.4.

`CCc1ccc(CCOc2ccc(CC3SC(=O)NC3=O)cc2)nc1` (stereo not drawn) [pioglitazone] showed a cell viability (Vero E6 [2]; 1 nM) of 99%, a cell viability (Vero E6 [2]; 10 nM) of 101% and a cell viability (Vero E6 [2]; 100 nM) of 98.9%. For the same compound, the cell viability (Vero E6 [2]; 1000 nM) was 83%, the cell viability (Vero E6 [2]; 10000 nM) was 85.5% and the cell viability (Calu-3 [3]; 1 nM) was 94.9%. The cell viability (Calu-3 [3]; 10 nM) was 98.1%, the cell viability (Calu-3 [3]; 100 nM) was 95.1% and the cell viability (Calu-3 [3]; 1000 nM) was 106%. For the same compound, the cell viability (Calu-3 [3]; 10000 nM) was 84.1%, the cell viability (Caco-2 [4]; 1 nM) was 93.1% and the cell viability (Caco-2 [4]; 10 nM) was 100%. The cell viability (Caco-2 [4]; 100 nM) was 98.6%, the cell viability (Caco-2 [4]; 1000 nM) was 92.4% and the cell viability (Caco-2 [4]; 10000 nM) was 91.5%. For the same compound, the cell viability (U2OS [5]; 1 nM) was 94.8%, the cell viability (U2OS [5]; 10 nM) was 94.7% and the cell viability (U2OS [5]; 100 nM) was 96%. For the same compound, the cell viability (U2OS [5]; 1000 nM) was 97.8%, the cell viability (U2OS [5]; 10000 nM) was 95.8% and the “relative viability EC50” value (Vero E6 [14]) was > 10 µM. For the same compound, the “relative viability EC50” value (Calu-3 [6]) was > 10 µM, the “relative viability EC50” value (Caco-2 [7]) was > 10 µM and the “relative viability EC50” value (U2OS [15]) was > 10 µM. For the same compound, the drug sensitivity score (Vero E6 [9]) was 2, the drug sensitivity score (Calu-3 [10]) was 0.1 and the drug sensitivity score (Caco-2 [11]) was 0. It also gave a drug sensitivity score (U2OS [12]) of 0.

For `COc1ccccc1OCC(O)COC(N)=O` (stereo not drawn) [methocarbamol], the cell viability (Caco-2 [4]; 1 nM) was 102%, the cell viability (Caco-2 [4]; 10 nM) was 98.4% and the cell viability (Caco-2 [4]; 100 nM) was 98.3%. The cell viability (Caco-2 [4]; 1000 nM) was 103%, the cell viability (Caco-2 [4]; 10000 nM) was 100% and the “relative viability EC50” value (Caco-2 [7]) was > 10 µM. It also gave a drug sensitivity score (Caco-2 [11]) of 0.

Compound `C[N+](C)(C)CCOC(N)=O` [carbachol] has a cell viability (Vero E6 [2]; 1 nM) of 101%, a cell viability (Vero E6 [2]; 10 nM) of 98.4% and a cell viability (Vero E6 [2]; 100 nM) of 97.3%. It also gave a cell viability (Vero E6 [2]; 1000 nM) of 97.2%, a cell viability (Vero E6 [2]; 10000 nM) of 99% and a cell viability (Calu-3 [3]; 1 nM) of 95%. The cell viability (Calu-3 [3]; 10 nM) was 102%, the cell viability (Calu-3 [3]; 100 nM) was 94% and the cell viability (Calu-3 [3]; 1000 nM) was 97.8%. The cell viability (Calu-3 [3]; 10000 nM) was 100%, the cell viability (Caco-2 [4]; 1 nM) was 93.6% and the cell viability (Caco-2 [4]; 10 nM) was 98.2%. For the same compound, the cell viability (Caco-2 [4]; 100 nM) was 106%, the cell viability (Caco-2 [4]; 1000 nM) was 99.1% and the cell viability (Caco-2 [4]; 10000 nM) was 106%. It also gave a cell viability (U2OS [5]; 1 nM) of 107%, a cell viability (U2OS [5]; 10 nM) of 107% and a cell viability (U2OS [5]; 100 nM) of 98.3%. For the same compound, the cell viability (U2OS [5]; 1000 nM) was 103%, the cell viability (U2OS [5]; 10000 nM) was 98.3% and the “relative viability EC50” value (Vero E6 [14]) was > 10 µM. For the same compound, the “relative viability EC50” value (Calu-3 [6]) was > 10 µM, the “relative viability EC50” value (Caco-2 [7]) was > 10 µM and the “relative viability EC50” value (U2OS [15]) was > 10 µM. The drug sensitivity score (Vero E6 [9]) was 0, the drug sensitivity score (Calu-3 [10]) was 0 and the drug sensitivity score (Caco-2 [11]) was 0. It also gave a drug sensitivity score (U2OS [12]) of 0.

In the case of `O=C(O)CN(CCN(CC(=O)O)CC(=O)O)CC(=O)O` [ethylenediaminetetraacetic-acid], the drug sensitivity score (HepG2 [8]) is reported as 0, the drug sensitivity score (Vero E6 [9]) is reported as 0 and the drug sensitivity score (Calu-3 [10]) is reported as 0. It also gave a drug sensitivity score (U2OS [12]) of 0.
